Consider 2 compounds from paper PMC6268831 (Molecules, 2012).

Data set [1] has as its system rat thymocytes. Put plainly: Mitochondrial membrane potential of rat thymocytes (Rhodamine 123 uptake). Type of data set: cell-based. As to conditions: 24 h, ratio of mean fluorescence intensity to control, mean ± SD. The procedure: Experiments were performed on adult male Wistar rats (150−180 g), 8−10 weeks old, bred at the Vivarium of the Institute of Biomedical Research, Medical Faculty, Nis, Serbia, under conventional laboratory conditions and in accordance with national animal protection guidelines. Rat thymocytes were isolated as described previously. The viability of the isolated cells, as determined by trypan blue dye exclusion test, was always over 95%. Isolated thymocytes were counted and adjusted to a density of 5 × 10^6 cells/mL of CM. […] Control samples were cultured in CM, with appropriate amounts of 96% ethanol (9.6%). Concentrations of tested substances used in our study were adopted from our previous report, regarding the effect of different compounds on thymocytes toxicity. All cell cultures were done in triplicates and cultivated for 24 h in an incubator (Galaxy, Wolf Laboratories, Pocklington, UK) with 5% CO2 at 37 °C. […] The fluorescence of intracellular Rhodamine 123 (excitation 485 nm; emission 530 nm) was measured by Perkin-Elmer fluorimeter, as published earlier. For each sample, basal fluorescence intensity values were subtracted from those obtained after different treatments and results were presented as ratio of mean fluorescence intensity (MFI).

Data set [2] relates to rat thymocytes. Put plainly: Cell viability of rat thymocytes by CCK-8 assay. Type of data set: cell-based. As to conditions: 24 h, absorbance ratio to control cells, mean ± SD. On the procedure: (§1) Experiments were performed on adult male Wistar rats (150−180 g), 8−10 weeks old, bred at the Vivarium of the Institute of Biomedical Research, Medical Faculty, Nis, Serbia, under conventional laboratory conditions and in accordance with national animal protection guidelines.
(§2) Rat thymocytes were isolated as described previously. The viability of the isolated cells, as determined by trypan blue dye exclusion test, was always over 95%. Isolated thymocytes were counted and adjusted to a density of 5 × 10^6 cells/mL of CM.
(§3) Isolated thymocytes were cultivated in 96-well round-bottom plates (NUNC, Aarhus, Denmark), containing a 100 µL of cell suspension (5 × 10^5 cells) in each well. […] Control samples were cultured in CM, with appropriate amounts of 96% ethanol (9.6%). Concentrations of tested substances used in our study were adopted from our previous report, regarding the effect of different compounds on thymocytes toxicity. All cell cultures were done in triplicates and cultivated for 24 h in an incubator (Galaxy, Wolf Laboratories, Pocklington, UK) with 5% CO2 at 37 °C.
Cell viability of rat thymocytes, after cultivation period, was evaluated by CCK-8 assay as was previously described. Ten µL of reaction mixture was added in each well. After 2 h of incubation, the solubilized formazan product was quantified spectrophotometrically, by using a microplate reader Perkin-Elmer (Wallac Victor^2V, Turku, Finland). Absorbance was measured at 450 nm. For each sample, basal intensity values were subtracted from those obtained after different treatments. Absorbances were presented as ratio for comparison with control samples.

Data set [3] has as its system rat thymocytes. Kind of data set: Intracellular ROS production in rat thymocytes (H2DCF-DA probe). The note with it: 24 h, ratio of mean fluorescence intensity to control, mean ± SD. Type of data set: cell-based. The procedure:
as §1, §2, §3
A redox-sensitive probe (H2DCF-DA) was used to determine changes in overall cellular ROS levels, as described previously. The change in fluorescence (excitation 485 nm; emission 530 nm) was measured using a Perkin-Elmer fluorimeter (Wallac Victor^2V). For each sample, basal fluorescence intensity values were subtracted from those obtained after different treatments and results were presented as ratio of mean fluorescence intensity (MFI).

The subject of data set [4] is human acute monocytic leukemia cell line (THP-1). As to conditions: tested as essential oil, lower concentrations than in this study, trypan blue viability assay; cited from earlier work.

Structures are written as SMILES.

Take `CC1(C)C2CCC1(C)C(O)C2` (stereo not shown) [Borneol, 4,7,7-trimethylbicyclo[2.2.1]heptan-3-ol]: the Mitochondrial membrane potential with rat thymocytes [1] (0.5 µg/mL) came out at 0.799 ± 0.022; in the data set on rat thymocytes [1] (5 µg/mL) it was 0.856 ± 0.084; with rat thymocytes [1] (50 µg/mL), 0.876 ± 0.110. In addition, the “Cytotoxicity (CCK-8 assay)” value with rat thymocytes [2] (0.5 µg/mL) worked out at 1.067 ± 0.004; in the data set on rat thymocytes [2] (5 µg/mL) it was 1.070 ± 0.015; with rat thymocytes [2] (50 µg/mL), 0.975 ± 0.144. Besides, the “Intracellular ROS production” value in the data set with rat thymocytes [3] (0.5 µg/mL) came to 1.268 ± 0.102; in the data set with rat thymocytes [3] (5 µg/mL) it was 1.224 ± 0.108; in the data set on rat thymocytes [3] (50 µg/mL), 1.164 ± 0.191.

Regarding `CC12CCC(CC1=O)C2(C)C` (stereo not shown) [Camphor, 4,7,7-trimethylbicyclo[2.2.1]heptan-3-one], the Mitochondrial membrane potential with rat thymocytes [1] (0.5 µg/mL) was found to be 0.740 ± 0.071; with rat thymocytes [1] (5 µg/mL) it was 0.919 ± 0.047; in the data set with rat thymocytes [1] (50 µg/mL), 0.925 ± 0.132. The “Cytotoxicity (CCK-8 assay)” value was 0.927 ± 0.132 in the data set with rat thymocytes [2] (0.5 µg/mL), 1.024 ± 0.083 in the data set on rat thymocytes [2] (5 µg/mL) and 1.111 ± 0.033 in the data set on rat thymocytes [2] (50 µg/mL). Besides, the “Intracellular ROS production” value is 1.413 ± 0.068 in the data set on rat thymocytes [3] (0.5 µg/mL), 1.399 ± 0.093 in the data set on rat thymocytes [3] (5 µg/mL) and 1.251 ± 0.049 in the data set with rat thymocytes [3] (50 µg/mL). Also, in data set [4], the “Toxic effect on THP-1 cells” value is “no significant toxic effect”.
